Here are results for two compounds from patent publication US20130196977A1, “USE OF ORGANIC COMPOUNDS” (priority 2004, published 2013).

Format in all cases: in vivo, rat
Test [1] has as its system double transgenic rats expressing human renin and human angiotensinogen (dTGR). The test can be described thus: Tissue Doppler assessment of diastolic filling (Ea/Aa) in dTGR. The note with it: dTGR at 9 weeks. The procedure:
(§1) As an example, four-week-old, male dTGR are allowed to develop hypertension and are placed in metabolic cages at 5.5 weeks of age. Systolic blood pressure (tail-cuff) and 24 h albumin excretion (ELISA, CellTrend, Germany) are measured as described earlier by Muller et al. Am J Pathol. 2002, 161:1679-93 and Muller et al. Am J Pathol. 2004, 164:521-32. The dTGR are matched at week 6 in terms of 24 h albumin excretion and distributed in five groups of 19 rats each. Treatments begin when the rats are aged 6 weeks. The rats receive vehicle treatment, aliskiren at 0.3 mg/kg/day and 3 mg/kg/day (by subcutaneous minipump), valsartan 1 mg/kg/day, and valsartan 10 mg/kg/day (given in the food). The low dose of valsartan is selected as a threshold treatment to reduce mortality yet only minimally effect blood pressure and organ damage. We know from earlier studies that vehicle-treated animals would not survive beyond 8 weeks of age and thus this low dose valsartan group will serve as a control group at 9 weeks. Echocardiography (M-mode tracings in the short axis and Tissue-Doppler-imaging;, n=5-6 per group at weeks 7 and 9) is performed with a 15 MHz phased-array transducer under isoflurane anesthesia (Mazak et al. Circulation. 2004; 109:2792-800). Three measurements per heart are determined, averaged, and statistically analyzed. M-mode is performed in a LV short axis and measured according to the leading edge-method. Total wall thickness is calculated as sum of septum+left ventricular posterior wall.
Tissue Doppler measures the velocity of the longitudinal cardiac movement at the basal septum, allowing assessment of diastolic filling Tissue Doppler measurements are performed with the sample volume in the basal septum in a four-chamber view. […] The measurements represent velocities of peak early (Ea) and late (Aa) diastolic expansion velocities. The Ea/Aa ratio is reported as an index of diastolic function.

Test [2] shares this test system. Kind of test: Cardiac hypertrophy index at sacrifice in dTGR. The note with it: for cardiac hypertrophy index score: p<0.05. As for the experimental part:
as §1, with “To circumvent this problem, transgenic rats have been developed harboring either the human renin or the human angiotensinogen genes. […] Consequently, the single transgenic rats (i.e., transgenic for either human angiotensinogen or renin) are normotensive. […] As” for “As”, “wall. Rats are sacrificed at age 9 weeks. The kidneys and hearts are removed and washed with ice-cold saline, blotted dry, and weighed. Tissue preparation and immunohistological techniques are performed as previously described Muller et al. Am J Pathol. 2002, 161:1679-93. Sections are incubated with primary antibodies against rat monocytes/macrophages (ED-1, Serotec, Germany), MHC II+, CD4+, and CD86+ cells (all BD Pharmingen, Germany). Scoring of infiltrated cells is performed using the program KS 300 3.0 (Zeiss, Germany). Fifteen different areas of each kidney (n=5 in all groups) are analyzed. A mean score for each animal is computed and used to derive a group mean score. Analyses are conducted without knowledge of the specific treatment.” for “wall.”

The subject of test [3] is atrial natriuretic peptide (ANP) mRNA. Kind of test: RT-PCR of left ventricular ANP mRNA in dTGR. The note with it: 9 weeks. The procedure:
as §1, with “wall. For RT-PCR, LV mRNA is isolated with TRIZOL (Gibco Life Technology). RT-PCR for α-myosin heavy chain (α-MHC) and β-MHC, as well as for atrial natriuretic peptide (ANP) is carried out in 25 μL SybrGreen PCR Master Mix (Applied Biosystems, Germany) containing […] primer and 1 μL of the reverse transcription reaction in a 5700 Sequence Detection System (Applied Biosystems). […]” for “wall.”

The subject of test [4] is double transgenic rats expressing human renin and human angiotensinogen (dTGR). The test can be described thus: M-mode echocardiography of LV wall thickness / hypertrophy in dTGR. The note with it: dTGR at 9 weeks. As for the experimental part: as §1
For test [5], the system named is α-myosin heavy chain (α-MHC) and β-MHC mRNA. The test can be described thus: RT-PCR of left ventricular α-MHC and β-MHC mRNA in dTGR. The note with it: left ventricle, 9 weeks. The procedure: as §1, with “wall. For RT-PCR, LV mRNA is isolated with TRIZOL (Gibco Life Technology). RT-PCR for α-myosin heavy chain (α-MHC) and β-MHC, as well as for atrial natriuretic peptide (ANP) is carried out in 25 μL SybrGreen PCR Master Mix (Applied Biosystems, Germany) containing […] primer and 1 μL of the reverse transcription reaction in a 5700 Sequence Detection System (Applied Biosystems). Thermal cycling conditions comprise an initial denaturation step at 95° C. for 10 min, followed by 95° C. for 15 s and 65° C. for 1 min for 40 cycles. mRNA expression is standardized to the hypoxanthine phosphoribosyl transferase gene as a housekeeping gene (primer sequences available on request).” for “wall.”

Setting [6] is: aliskiren 3 mg/kg/d, listed as Alisk.
[7] abbreviates: valsartan 1 mg/kg/d in the food.
Where [8] appears, read: valsartan 10 mg/kg/d in the food.

“Also recorded” adds a separate entry of the source.

Regarding `COCCCOc1cc(C[C@@H](C[C@H](N)[C@@H](O)C[C@H](C(=O)NCC(C)(C)C(N)=O)C(C)C)C(C)C)ccc1OC` [aliskiren, 2(S),4(S),5(S),7(S)—N-(3-amino-2,2-dimethyl-3-oxopropyl)-2,7-di(1-methylethyl)-4-hydroxy-5-amino-8-[4-methoxy-3-(3-methoxy-propoxy)phenyl]-octanamide], the Ea/Aa ratio result in test [1] (aliskiren 0.3 mg/kg/d (low dose) subcutaneous minipump) is listed as “about 1.5”; in test [1] (aliskiren 0.3 mg/kg/d (low dose) subcutaneous minipump, listed as Alisk), 1.5; in test [1] (aliskiren 3 mg/kg/d (high dose) subcutaneous minipump) it was “about 1.4”; in test [1] (aliskiren 3 mg/kg/d (high dose) subcutaneous minipump, listed as Alisk) it was 1.5. The “diastolic dysfunction / diastolic filling (in words)” value in test [1] (aliskiren 0.3 mg/kg/d) was “markedly improve”; in test [1] (aliskiren 0.3 mg/kg/d, listed as Alisk) it was “appropriate diastolic filling”; in test [1] (aliskiren 3 mg/kg/d) it was “markedly improve; also recorded: best diastolic filling”; in test [1] (setting [6]), “appropriate diastolic filling”. Moreover, the “cardiac hypertrophy index score” value in test [2] (aliskiren 0.3 mg/kg/d subcutaneous minipump from week 6, age 9 weeks) was “decreases”; in test [2] (aliskiren 3 mg/kg/d subcutaneous minipump from week 6, age 9 weeks), “decreases”. Also, in test [2] (aliskiren 3 mg/kg/d, age 9 weeks), the “cardiac hypertrophy index compared to valsartan 10 mg/kg/d treated dTGR” value is listed as “significantly lower”. Further, the “LV ANP mRNA expression compared to valsartan 1 mg/kg/d treated dTGR” value in test [3] (aliskiren 0.3 mg/kg/d) and in test [3] (aliskiren 3 mg/kg/d) was “reduced” throughout. The “left ventricular hypertrophy (in words)” value in test [4] (aliskiren 0.3 mg/kg/d) is given as “markedly ameliorated”; in test [4] (aliskiren 0.3 mg/kg/d, listed as Aliskiren) it was “reduce left ventricular hypertrophy”; in test [4] (aliskiren 3 mg/kg/d) it was “markedly ameliorated; also recorded: lowest wall thickness values”; in test [4] (setting [6]) it was “reduce left ventricular hypertrophy; also recorded: normalized LV dimensions”. The “wall thickness (septum + LV posterior wall)” value in test [4] (aliskiren 3 mg/kg/d subcutaneous minipump) is “about 2.2 mm”. The “shift from α-MHC expression to the fetal β-MHC isoform (LV mRNA)” value is on record as “prevent the shift” in test [5] (aliskiren 0.3 mg/kg/d); “prevent the shift” in test [5] (aliskiren 3 mg/kg/d); “most effective” in test [5] (aliskiren 3 mg/kg/d, listed as Aliskiren).

On to `CCCCC(=O)N(Cc1ccc(-c2ccccc2-c2nnn[nH]2)cc1)[C@H](C(=O)O)C(C)C` [valsartan], for which the Ea/Aa ratio result was “about 0.68” in test [1] (setting [7]); 0.66 in test [1] (valsartan 1 mg/kg/d in the food, listed as Val); “about 1.0” in test [1] (setting [8]); 1.0 in test [1] (valsartan 10 mg/kg/d in the food, listed as Val). Moreover, the “diastolic dysfunction / diastolic filling (in words)” value was “marked diastolic dysfunction” in test [1] (valsartan 1 mg/kg/d); “severe diastolic dysfunction” in test [1] (valsartan 1 mg/kg/d, listed as Val); “still present” in test [1] (valsartan 10 mg/kg/d (high dose)); “indicating diastolic dysfunction” in test [1] (valsartan 10 mg/kg/d (high dose), listed as Val). Besides, in test [2] (valsartan 10 mg/kg/d in the food from week 6, age 9 weeks), the “cardiac hypertrophy index score” value is “decreases”. The “LV ANP mRNA expression compared to valsartan 1 mg/kg/d treated dTGR” value in test [3] (valsartan 10 mg/kg/d) is recorded as “reduces the expression of this gene, but not to a significant degree”. The “wall thickness (septum + LV posterior wall)” value in test [4] (setting [7]) is given as “about 3.4 mm”; in test [4] (setting [8]) it was “about 2.7 mm”. Moreover, the “left ventricular hypertrophy (in words)” value in test [4] (valsartan 1 mg/kg/d) was “concentric hypertrophy; also recorded: severe left ventricular hypertrophy; also recorded: severe septal and posterior wall hypertrophy”; in test [4] (valsartan 10 mg/kg/d) it was “markedly ameliorated”; in test [4] (valsartan 10 mg/kg/d, listed as Val), “reduces septal and posterior wall hypertrophy substantially”. Moreover, the “shift from α-MHC expression to the fetal β-MHC isoform (LV mRNA)” value in test [5] (valsartan 10 mg/kg/d) is reported as “prevent the shift”.
